The numbers were not newly measured in patent US7579360B2, “Triazolopyridine 11-beta hydroxysteroid dehydrogenase type I inhibitors” (Bristol-Myers Squibb Company, priority 2005, dated 2009), which cites them from elsewhere.

This series deals with T1, 11beta-HSD1 (Homo sapiens, UniProt P28845).
T1 construct: host or cells: patients with type 2 diabetes (liver, in vivo)
The settings on record: mildly overweight individuals with type 2 diabetes, seven days, versus placebo.

T1 sequence (P28845 whole entry): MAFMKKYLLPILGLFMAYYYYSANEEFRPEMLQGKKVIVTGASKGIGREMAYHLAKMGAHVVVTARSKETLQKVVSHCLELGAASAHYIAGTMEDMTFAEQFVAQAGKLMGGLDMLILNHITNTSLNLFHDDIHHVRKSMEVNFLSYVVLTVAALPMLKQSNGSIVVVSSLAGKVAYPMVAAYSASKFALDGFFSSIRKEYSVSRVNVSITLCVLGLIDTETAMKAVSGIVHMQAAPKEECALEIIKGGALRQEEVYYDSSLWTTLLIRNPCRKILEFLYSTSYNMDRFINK

Take `CC1(C)[C@@H](OC(=O)CCC(=O)O)CC[C@]2(C)[C@H]3C(=O)C=C4[C@@H]5C[C@@](C)(C(=O)O)CC[C@]5(C)CC[C@@]4(C)[C@]3(C)CC[C@@H]12` [carbenoxolone]: the hepatic glucose production result is recorded as “decrease”.
